Where two headings read alike, the source gives them in different places.
What was measured:
Experiment in all cases: Chymotrypsin coupled prolyl-isomerase assay
CypA = biological target: T1, CypA (Homo sapiens, UniProt P62937); assay type: biochemical
T1 construct: PPIA (UniProtKB Entry P62937: residues 1–165); made in house; host or cells: E. coli BL21(DE3)
How it was run: (§1)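 5 nM Cyp, HEPES pH 7.3/NaCl/Triton buffer, 2–3 °C; cpd 5 min, chymotrypsin 25 µM 5 min, then Suc-AAPF-AMC 5 µM in LiCl/TFE. Kinetic fluorescence 330 s. Per-well rate constants, normalized, IC50 from nonlinear fit.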

CypH = biological target: T2, CypH (Homo sapiens, UniProt O43447); assay type: biochemical
T2 construct: PPIH (UniProtKB Entry O43447: residues 1–177); His6 with TEV site (2BT vector leader) (N); made in house; host or cells: E. coli BL21(DE3)
How it was run: as §1

CypG = biological target: T3, CypG (Homo sapiens, UniProt Q13427); assay type: biochemical
T3 construct: PPIG (UniProtKB Entry Q13427: residues 1–179); His6 with thrombin site (pET28a LIC leader) (N); host or cells: E. coli BL21(DE3)
T3 sequence (Q13427 1-179): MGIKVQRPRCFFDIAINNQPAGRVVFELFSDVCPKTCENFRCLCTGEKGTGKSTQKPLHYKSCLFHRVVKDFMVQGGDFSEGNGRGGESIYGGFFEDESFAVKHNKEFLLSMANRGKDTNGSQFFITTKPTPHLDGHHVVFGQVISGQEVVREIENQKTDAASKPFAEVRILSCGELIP
How it was run: as §1

CypC = biological target: T4, CypC (Homo sapiens, UniProt P45877); assay type: biochemical
T4 construct: PPIC (UniProtKB Entry P45877: residues 24–212); host or cells: E. coli BL21(DE3)
How it was run: as §1

CypE = biological target: T5, CypE (Homo sapiens, UniProt Q9UNP9); assay type: biochemical
T5 construct: PPIE (UniProtKB Entry Q9UNP9: residues 131–301); host or cells: E. coli BL21(DE3)
How it was run: as §1

Cyp40 = Cyp40 (Homo sapiens, UniProt Q08752)
How it was run: as §1

PPIL1 = biological target: T6, PPIL1 (Homo sapiens, UniProt Q9Y3C6); assay type: biochemical
T6 construct: PPIL1 (UniProtKB Entry Q9Y3C6: residues 1–166); made in house; host or cells: E. coli BL21(DE3)
T6 sequence (Q9Y3C6 1-166): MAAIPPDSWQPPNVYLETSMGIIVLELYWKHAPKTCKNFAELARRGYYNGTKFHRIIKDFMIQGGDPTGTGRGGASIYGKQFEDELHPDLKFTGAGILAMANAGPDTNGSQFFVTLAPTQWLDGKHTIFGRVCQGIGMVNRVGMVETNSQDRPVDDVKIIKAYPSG

NKTR = biological target: T7, NKTR (Homo sapiens, UniProt P30414); assay type: biochemical
T7 construct: NKTR (UniProtKB Entry P30414: residues 7–179); host or cells: E. coli BL21(DE3)
T7 sequence (P30414 7-179): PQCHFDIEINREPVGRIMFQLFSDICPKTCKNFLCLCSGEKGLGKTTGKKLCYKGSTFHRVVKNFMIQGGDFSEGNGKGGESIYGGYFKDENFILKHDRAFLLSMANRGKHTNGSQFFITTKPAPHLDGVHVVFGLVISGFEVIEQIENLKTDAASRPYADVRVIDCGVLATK

[1] = wild-type CypH, read-out: Wild-Type Cyclophilin Prolyl Isomerase Inhibition IC50 Values, CypH
[2] = wild-type CypG, read-out: Wild-Type Cyclophilin Prolyl Isomerase Inhibition IC50 Values, CypG
[3] = wild-type CypC, read-out: Wild-Type Cyclophilin Prolyl Isomerase Inhibition IC50 Values, CypC
[4] = wild-type CypE, read-out: Wild-Type Cyclophilin Prolyl Isomerase Inhibition IC50 Values, CypE
[5] = wild-type PPIL1, read-out: Wild-Type Cyclophilin Prolyl Isomerase Inhibition IC50 Values, PPIL1
[6] = wild-type NKTR, read-out: Wild-Type Cyclophilin Prolyl Isomerase Inhibition IC50 Values, NKTR

Chain of Cyp40 (Q08752 1-183): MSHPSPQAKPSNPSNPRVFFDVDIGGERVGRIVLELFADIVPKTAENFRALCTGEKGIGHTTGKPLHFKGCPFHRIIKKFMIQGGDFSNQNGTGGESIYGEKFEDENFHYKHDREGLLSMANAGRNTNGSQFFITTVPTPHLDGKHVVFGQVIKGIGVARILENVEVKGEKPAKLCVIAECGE
T5 sequence (Q9UNP9 131-301): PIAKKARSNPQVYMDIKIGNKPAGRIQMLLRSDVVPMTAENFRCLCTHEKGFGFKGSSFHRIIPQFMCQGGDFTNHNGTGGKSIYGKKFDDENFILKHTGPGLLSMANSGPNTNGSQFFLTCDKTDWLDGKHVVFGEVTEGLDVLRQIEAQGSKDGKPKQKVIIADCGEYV
T2 sequence (O43447 whole entry, the tested form may be a part): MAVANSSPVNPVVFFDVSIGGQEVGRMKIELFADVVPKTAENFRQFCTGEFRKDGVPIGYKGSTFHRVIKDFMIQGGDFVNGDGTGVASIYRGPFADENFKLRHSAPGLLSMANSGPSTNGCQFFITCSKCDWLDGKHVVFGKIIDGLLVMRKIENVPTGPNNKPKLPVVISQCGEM
T1 sequence (P62937 whole entry, the tested form may be a part): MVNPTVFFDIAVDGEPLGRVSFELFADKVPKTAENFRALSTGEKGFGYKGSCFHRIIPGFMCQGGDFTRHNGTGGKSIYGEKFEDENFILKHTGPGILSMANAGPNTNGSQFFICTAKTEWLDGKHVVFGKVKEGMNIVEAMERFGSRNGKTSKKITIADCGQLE
T4 sequence (P45877 24-212): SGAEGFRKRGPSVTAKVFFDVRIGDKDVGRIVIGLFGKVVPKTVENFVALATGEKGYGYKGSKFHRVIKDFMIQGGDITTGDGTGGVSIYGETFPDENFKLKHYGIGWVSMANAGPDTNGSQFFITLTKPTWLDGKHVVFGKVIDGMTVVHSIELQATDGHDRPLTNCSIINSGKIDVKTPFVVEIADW

NCCOCCNC(=O)[C@@H]1CCNC(=O)/C=C/C(=O)N2CCC[C@](Cc3ccccc3)(C2)C(=O)N[C@@H](Cc2ccc(-c3ccc(CC(C(=O)O)C(=O)O)cc3)cc2)C(=O)NCc2ccccc2CC(=O)N1 [Compound B52]
IC50 (CypA; Independent replicate 2, read-out: IC50 CypA): 0.9 ± 0.1 µM | IC50 (CypA; Independent replicate 3, read-out: IC50 CypA): 0.9 ± 0.3 µM | IC50 (CypA; Independent replicate 4, read-out: IC50 CypA): 1.4 ± 0.5 µM | IC50 (CypA; prolyl-isomerase inhibition, 5 nM cyclophilin, read-out: IC50 CypA): 1.1 µM | IC50 (CypH; Independent replicate 1, read-out: IC50 CypH): > 100 µM | IC50 (CypH; Independent replicate 2, read-out: IC50 CypH): > 100 µM | IC50 (CypH; Independent replicate 3, read-out: IC50 CypH): > 100 µM | IC50 (CypH; Independent replicate 4, read-out: IC50 CypH): > 100 µM | IC50 (CypH; prolyl-isomerase inhibition, 5 nM cyclophilin, read-out: IC50 CypH): > 100 µM | IC50 (CypH; prolyl-isomerase inhibition, read-out: IC50 CypH): > 100 µM | IC50 (CypH; [1]): > 100 µM | IC50 (CypG; Independent replicate 1, read-out: IC50 CypG): ~80 µM | IC50 (CypG; Independent replicate 2, read-out: IC50 CypG): > 100 µM | IC50 (CypG; Independent replicate 3, read-out: IC50 CypG): ~80 µM | IC50 (CypG; Independent replicate 4, read-out: IC50 CypG): > 100 µM | IC50 (CypG; prolyl-isomerase inhibition, 5 nM cyclophilin, read-out: IC50 CypG): > 100 µM | IC50 (CypG; prolyl-isomerase inhibition, read-out: IC50 CypG): > 100 µM | IC50 (CypG; [2]): > 100 µM | IC50 (CypC; Independent replicate 1, read-out: IC50 CypC): > 100 µM | IC50 (CypC; Independent replicate 2, read-out: IC50 CypC): > 100 µM | IC50 (CypC; Independent replicate 3, read-out: IC50 CypC): > 100 µM | IC50 (CypC; Independent replicate 4, read-out: IC50 CypC): > 100 µM | IC50 (CypC; prolyl-isomerase inhibition, 5 nM cyclophilin, read-out: IC50 CypC): > 100 µM | IC50 (CypC; prolyl-isomerase inhibition, read-out: IC50 CypC): > 100 µM | IC50 (CypC; [3]): > 100 µM | IC50 (CypE; Independent replicate 1, read-out: IC50 CypE): 0.21 ± 0.08 µM | IC50 (CypE; Independent replicate 2, read-out: IC50 CypE): 0.4 ± 0.1 µM | IC50 (CypE; Independent replicate 3, read-out: IC50 CypE): 0.3 ± 0.1 µM | IC50 (CypE; Independent replicate 4, read-out: IC50 CypE): 0.36 ± 0.07 µM | IC50 (CypE; [4]): 0.31 µM | IC50 (Cyp40; IC50 Cyp40, Independent replicate 1): 13 ± 5 µM | IC50 (Cyp40; IC50 Cyp40, Independent replicate 2): 30 ± 20 µM | IC50 (Cyp40; IC50 Cyp40, Independent replicate 3): 20 ± 10 µM | IC50 (Cyp40; IC50 Cyp40, Independent replicate 4): 20 ± 10 µM | IC50 (Cyp40; Wild-Type Cyclophilin Prolyl Isomerase Inhibition IC50 Values, Cyp40, wild-type Cyp40): 22 µM | IC50 (PPIL1; Independent replicate 1, read-out: IC50 PPIL1): 5 ± 2 µM | IC50 (PPIL1; Independent replicate 2, read-out: IC50 PPIL1): 9 ± 3 µM | IC50 (PPIL1; Independent replicate 3, read-out: IC50 PPIL1): 6 ± 2 µM | IC50 (PPIL1; Independent replicate 4, read-out: IC50 PPIL1): 5 ± 2 µM | IC50 (PPIL1; prolyl-isomerase inhibition, 5 nM cyclophilin, read-out: IC50 PPIL1): 6 ± 2 µM | IC50 (PPIL1; prolyl-isomerase inhibition, read-out: IC50 PPIL1): 6 µM | IC50 (PPIL1; [5]): 6 µM | IC50 (NKTR; Independent replicate 1, read-out: IC50 NKTR): > 100 µM | IC50 (NKTR; Independent replicate 2, read-out: IC50 NKTR): > 100 µM | IC50 (NKTR; Independent replicate 3, read-out: IC50 NKTR): > 100 µM | IC50 (NKTR; Independent replicate 4, read-out: IC50 NKTR): > 100 µM | IC50 (NKTR; prolyl-isomerase inhibition, 5 nM cyclophilin, read-out: IC50 NKTR): > 100 µM | IC50 (NKTR; prolyl-isomerase inhibition, read-out: IC50 NKTR): > 100 µM | IC50 (NKTR; [6]): > 100 µM

C[N+]1=C(C=CC=CC=C2N(CCCCCC(=O)NCCNC(=O)C3CCNC(=O)C=CC(=O)N4CCCC(Cc5ccccc5)(C4)C(=O)NC(Cc4ccc(-c5ccc(C(CC(=O)O)CC(=O)O)cc5)cc4)C(=O)NCc4ccccc4CC(=O)N3)c3ccccc3C2(C)C)C(C)(C)c2ccccc21 (stereo not drawn) [Compound B53-Cy5]
IC50 (CypA; wild-type CypA, read-out: Wild-Type Cyclophilin Prolyl Isomerase Inhibition IC50 Values, CypA): 0.3 µM | IC50 (CypH; [1]): > 2 µM | IC50 (CypG; [2]): > 2 µM | IC50 (CypC; [3]): > 2 µM | IC50 (CypE; [4]): 1.1 µM | IC50 (Cyp40; read-out: Wild-Type Cyclophilin Prolyl Isomerase Inhibition IC50 Values, Cyp40, wild-type Cyp40): > 2 µM | IC50 (PPIL1; [5]): > 2 µM | IC50 (NKTR; [6]): > 2 µM

From publication PMC9596378, “Discovery and molecular basis of subtype-selective cyclophilin inhibitors” (Nature Chemical Biology, 2022)
